Source: the supplement of paper PMC10307832

Assays:
Assay in all cases: relative viability (nuclei count vs DMSO), 5 days (fraction); higher = more cells survive
[1] = compound: CN1CCN(c2ccc3nc(-c4c(N)c5c(F)cccc5[nH]c4=O)[nH]c3c2)CC1 [Dovitinib] + CS(=O)(=O)N1CCN(Cc2cc3nc(-c4cccc5[nH]ncc45)nc(N4CCOCC4)c3s2)CC1 [Pictilisib] (partner 1 µM)
Outline: (§1)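 A single step with final 0.05% Triton X-100, 1% formaldehyde and 1 ug/ml Hoechst fixed the cells and stained nuclei 5 days after treatment. Lung cancer cell lines in 1536-well plates had been treated by pin tool the day after seeding with one drug alone or a fixed anchor-drug dose plus five library-drug doses (not always all listed) in √10 steps, and nuclei were counted on 4× images. Relative viability is the ratio of nuclei in treated wells to nuclei in vehicle wells, taken as the median of duplicate plates.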

[2] = compound: CN1CCN(c2ccc3nc(-c4c(N)c5c(F)cccc5[nH]c4=O)[nH]c3c2)CC1 [Dovitinib] + CC(C)C[C@H](NC(=O)[C@H](Cc1ccccc1)NC(=O)c1cnccn1)B(O)O [Bortezomib] (partner 0.002 µM)
Outline: as §1

[3] = compound: CN1CCN(c2ccc3nc(-c4c(N)c5c(F)cccc5[nH]c4=O)[nH]c3c2)CC1 [Dovitinib] + COc1cc2c(Oc3ccc(NC(=O)C4(C(=O)Nc5ccc(F)cc5)CC4)cc3F)ccnc2cc1OCCCN1CCOCC1 [Foretinib] (partner 0.25 µM)
Outline: as §1

[4] = compound: CN1CCN(c2ccc3nc(-c4c(N)c5c(F)cccc5[nH]c4=O)[nH]c3c2)CC1 [Dovitinib] + CC(=O)c1c(C)c2cnc(Nc3ccc(N4CCNCC4)cn3)nc2n(C2CCCC2)c1=O [Palbociclib] (partner 0.5 µM)
Outline: as §1

Cell Line	relative viability ([1]; first compound 0.02 µM)	relative viability ([1]; first compound 0.06325 µM)	relative viability ([1]; first compound 0.2 µM)	relative viability ([1]; first compound 0.6325 µM)	relative viability ([1]; first compound 2 µM)	relative viability ([2]; first compound 0.02 µM)	relative viability ([2]; first compound 0.06325 µM)	relative viability ([2]; first compound 0.2 µM)	relative viability ([2]; first compound 0.6325 µM)	relative viability ([2]; first compound 2 µM)	relative viability ([3]; first compound 0.02 µM)	relative viability ([3]; first compound 0.06325 µM)	relative viability ([3]; first compound 0.2 µM)	relative viability ([3]; first compound 0.6325 µM)	relative viability ([3]; first compound 2 µM)	relative viability ([4]; first compound 0.02 µM)	relative viability ([4]; first compound 0.06325 µM)	relative viability ([4]; first compound 0.2 µM)	relative viability ([4]; first compound 0.6325 µM)	relative viability ([4]; first compound 2 µM)
NCI-H1650	0.62	0.577	0.654	0.608	0.678	0.209	0.206	0.201	0.189	0.203	1.44	1.21	0.998	0.819	0.972	0.392	0.338	0.328	0.349	0.386
NCI-H1651	0.577	0.528	0.598	0.551	0.5	0.957	0.961	1.03	1.02	0.91	0.899	0.792	0.836	0.796	0.721	0.538	0.532	0.526	0.53	0.549
NCI-H1666	0.607	0.533	0.548	0.322	0.375	1	0.87	0.968	0.792	0.842	1.02	0.975	0.961	0.99	0.961	0.698	0.657	0.677	0.625	0.669
NCI-H1734	0.475	0.457	0.413	0.437	0.397	0.845	0.941	0.933	0.948	0.87	0.9	0.813	0.834	0.735	0.834	0.371	0.387	0.355	0.338	0.416
NCI-H1755	0.494	0.399	0.465	0.452	0.46	0.97	0.923	0.957	0.928	0.955	0.935	0.895	1.03	0.92	0.969	0.47	0.427	0.479	0.463	0.471
NCI-H1915	0.877	0.893	0.912	0.891	0.961	0.873	0.963	0.955	0.91	0.986	1.07	1.08	1.1	1.07	1.06	0.512	0.533	0.537	0.488	0.553
NCI-H1975	0.299	0.271	0.325	0.324	0.274	0.389	0.48	0.377	0.373	0.405	1.01	0.962	0.927	0.989	0.975	0.657	0.674	0.58	0.645	0.598
NCI-H1993	0.762	0.886	0.825	0.819	0.787	1.42	1.14	1.05	1.13	0.941	0.759	0.714	0.742	0.771	0.771	0.856	0.721	0.639	0.547	0.66
